Data published in patent US20160166488A1, “MEDICAMENT” (SYMRISE AG, priority 2013, published 2016).

Tested on: MMP-1
Assay: Inhibition of MMP-1 synthesis: release of MMP-1 from dermal fibroblasts as an effect of UV radiation (Amersham kit RPN2610)
Assay type: cell-based
Settings: dermal fibroblast culture, test product conc. 0.001 % w/v, incubation 36 h at 37° C., threefold determination; for MMP with UVA: with UVA (method text: UVB radiation 50 mJ/cm^2)
Procedure: Inhibition of MMP-1 Synthesis
The capacity of the test substances to alleviate the toxic effect of UVA radiation was investigated. A culture of dermal fibroblasts was used as an in vitro system, and the release of MMP-1 from these fibroblasts as an effect of UV radiation was determined. In order to carry out the experiment, a fibroblast culture with fetal calf serum was prepared and inoculated with the test substances 2 days thereafter. After incubation for 36 h at 37° C. with a CO2 level of 5 vol %, the nutrient medium was replaced with an electrolyte solution, and the fibroblasts were damaged with a specified dose of UVB radiation (50 mJ/cm^2). Determination of MMP was carried out with a kit that is commercially available from the firm Amersham under the name RPN2610. The amount of MMP is given in ng/ml from a test series with threefold determination.

Structure (SMILES) | MMP with UVA | MMP without UVA
C[N+](C)(C)C[C@H](O)CC(=O)O.[Cl-] [Carnitine*HCl] | 118 ± 21 rel. % | 24 ± 7 rel. %
CCCCCCOC(=O)c1ccccc1C(=O)c1ccc(N(CC)CC)cc1O [Uvinul A, 2-(4-diethylamino-2-hydroxybenzoyl)-benzoic acid hexyl ester] | 99 ± 12 rel. % | 17 ± 3 rel. %
CCCCC(CC)COC(=O)C(C#N)=C(c1ccccc1)c1ccccc1 (centres unmarked) [Octocrinyl, 2-cyano-3,3-phenylcinnamic acid-2-ethylhexyl ester] | 100 ± 20 rel. % | 17 ± 7 rel. %
NCCC(=O)N[C@@H](Cc1cnc[nH]1)C(=O)O [L-carnosine] | 101 ± 17 rel. % | 22 ± 5 rel. %
